Source: patent US7524956B2, “Hemisynthetic method and new compounds” (Pharma Mar, S.A., priority 1999, dated 2009)

Key:
Format in all cases: cell-based
[1] = test system: HT-29 (monolayer culture of a human colon carcinoma); test: Cytotoxic activity screening, HT-29 cells; conditions: HT-29, 72 h, three days of incubation, Crystal Violet, approximate IC50
Procedure: (§1) Cell Cultures. Cells were maintained in logarithmic phase of growth in Eagle's Minimum Essential Medium, with Earle's Balanced Salts, with 2.0 mM L-glutamine, with non-essential amino acids, without sodium bicarbonate (EMEM/neaa); supplemented with 10% Fetal Calf Serum (FCS), 10^−2 M sodium bicarbonate and 0.1 g/l penicillin-G+streptomycin sulfate.
(§2) A simple screening procedure has been carried out to determine and compare the antitumour activity of these compounds, using an adapted form of the method described by Bergeron et al (1984). The tumour cell line employed have been P-388 (suspension culture of a lymphoid neoplasm from DBA/2 mouse), A-549 (monolayer culture of a human lung carcinoma), HT-29 (monolayer culture of a human colon carcinoma) and MEL-28 (monolayer culture of a human melanoma).
(§3) A-549, HT-29 and MEL-28 were seeded into 16 mm wells at 2×10^4 cells per well in 1 ml aliquots of MEM 10FCS containing the indicated concentration of drug. A separate set of cultures without drug was seeded as control growth to ensure that cells remained in exponential phase of growth. All determinations were carried out in duplicate. After three days of incubation at 37° C., 10% CO2 in a 98% humid atmosphere, the wells were stained with 0.1% Crystal Violet. An approximately IC50 was determined by comparing the growth in wells with drug to the growth in wells control.

DU-145 = test: Cytotoxic activity screening, DU-145 cells; conditions: Homo sapiens, DU-145, DU-145 cells
[2] = test system: A-549 (monolayer culture of a human lung carcinoma); test: Cytotoxic activity screening, A-549 cells; conditions: A549, 72 h, three days of incubation, Crystal Violet, approximate IC50
Procedure: as §1, §2, §3

[3] = test system: MEL-28 (monolayer culture of a human melanoma); test: Cytotoxic activity screening, MEL-28 cells; conditions: SK-MEL-28, 72 h, three days of incubation, Crystal Violet, approximate IC50
Procedure: as §1, §2, §3

[4] = test system: P-388 (suspension culture of a lymphoid neoplasm from DBA/2 mouse); test: Cytotoxic activity screening, P-388 cells; conditions: P388, 72 h, three days of incubation, approximate IC50
Procedure: as §1, §2
P-388 cell were seeded into 16 mm wells at 1×10^4 cells per well in 1 ml aliquots of MEM 5FCS containing the indicated concentration of drug. A separate set of cultures without drug was seeded as control growth to ensure that cells remained in exponential phase of growth. All determinations were carried out in duplicate.

Row | SMILES | IC50 [1] | IC50 (DU-145) | IC50 [2] | IC50 [3] | IC50 [4]
1 | CCCCCCCCCC(=O)NC[C@H]1c2c(c(OC(C)=O)c(C)c3c2OCO3)CC2[C@H]3c4c(cc(C)c(OC)c4O)C[C@@H]([C@H](C#N)N21)N3C (stereo partly drawn) | 0.007 µM | 0.007 µM | 0.007 µM | 0.007 µM | 0.007 µM
2 | CCCC(=O)N[C@@H](C)C(=O)NC[C@H]1c2c(c(OC(C)=O)c(C)c3c2OCO3)CC2[C@H]3c4c(cc(C)c(OC)c4O)C[C@@H]([C@H](C#N)N21)N3C (stereo partly drawn) | 0.0005 µM | 0.001 µM | 0.001 µM | 0.0005 µM | 0.001 µM
3 | COc1c(C)cc2c(c1O)[C@@H]1C3Cc4c(OC(C)=O)c(C)c5c(c4[C@H](CNC(=O)/C=C/c4ccccc4)N3[C@@H](C#N)[C@H](C2)N1C)OCO5 (stereo partly drawn) | 0.0001 µM | 0.0001 µM | 0.0001 µM | 0.0001 µM | 0.0001 µM
